Patent US11684614B2, “Formulations of hydroxypyridonate actinide/lanthanide decorporation agents” (priority 2017, dated 2023)

Legend:
CYP2B6 = target: T1, CYP2B6 (Homo sapiens, UniProt P20813); test: CYP inhibition; format: in vitro ADME
T1 sequence (P20813 1-491): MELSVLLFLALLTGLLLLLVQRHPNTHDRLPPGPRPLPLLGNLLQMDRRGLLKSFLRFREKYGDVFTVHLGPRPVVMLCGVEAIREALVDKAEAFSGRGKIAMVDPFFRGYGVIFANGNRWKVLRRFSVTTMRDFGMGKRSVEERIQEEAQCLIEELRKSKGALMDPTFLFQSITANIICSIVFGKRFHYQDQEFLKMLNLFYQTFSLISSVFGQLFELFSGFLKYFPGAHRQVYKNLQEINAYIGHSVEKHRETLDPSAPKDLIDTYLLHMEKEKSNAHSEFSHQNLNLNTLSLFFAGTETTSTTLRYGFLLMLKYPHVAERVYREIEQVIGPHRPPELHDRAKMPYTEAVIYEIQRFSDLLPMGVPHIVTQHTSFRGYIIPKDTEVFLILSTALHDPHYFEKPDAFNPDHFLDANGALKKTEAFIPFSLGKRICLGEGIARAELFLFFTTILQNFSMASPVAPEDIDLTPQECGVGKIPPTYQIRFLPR

[1] = Prototype oral formulation preparation and physico-chemical characterization (Example 2); format: physicochemical; conditions: powder in bottle compositions
Protocol: Suitable formulation methodologies such as direct compression, dry compaction, and/or wet granulation processes were evaluated.
Powder in bottle (PIB) is one of the most convenient dosage form used in early stage clinical development because of its ease of use. In comparison with capsules, PIB can carry large dose and fill weights. […] The reason for evaluating each composition is also described. […] TABLE 2.14 describes the corresponding properties of the evaluated formulations.
TABLE 2.16 describes the corresponding properties of the evaluated formulations.
Chewable tablets are formulated for use in the mouth. They are usually uncoated, and are formulated to provide a release and absorption of the active ingredient(s) in the mouth/buccal cavity or from stomach. […] TABLE 2.18 describes the corresponding properties of the evaluated formulations.
Various compositions and processes (Direct compression & Wet granulation) were evaluated to formulate conventional tablets with 1000, 750 and/or 500 mg drug load. […]

[2] = 7-day oral gavage study in Sprague Dawley rats (SRI No. M801-10); format: in vivo
CYP2D6 = CYP2D6 (Homo sapiens, UniProt P10635); test: CYP inhibition; format: in vitro ADME
CYP2D6, sequence (P10635 whole entry): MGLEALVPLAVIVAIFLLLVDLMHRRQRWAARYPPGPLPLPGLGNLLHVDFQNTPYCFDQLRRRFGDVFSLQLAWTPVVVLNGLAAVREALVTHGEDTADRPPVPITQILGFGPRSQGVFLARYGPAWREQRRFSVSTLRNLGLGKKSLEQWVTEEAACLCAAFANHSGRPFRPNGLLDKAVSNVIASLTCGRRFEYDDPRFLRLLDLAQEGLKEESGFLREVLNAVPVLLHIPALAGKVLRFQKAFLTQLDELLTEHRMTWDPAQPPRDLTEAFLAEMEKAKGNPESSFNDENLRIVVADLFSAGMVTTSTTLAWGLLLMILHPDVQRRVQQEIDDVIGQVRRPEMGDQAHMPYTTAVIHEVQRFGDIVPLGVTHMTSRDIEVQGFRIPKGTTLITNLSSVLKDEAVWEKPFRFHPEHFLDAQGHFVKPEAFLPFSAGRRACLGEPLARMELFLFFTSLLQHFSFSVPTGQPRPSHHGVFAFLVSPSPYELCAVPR

In the case of `O=C(NCCCN(CCCCN(CCCNC(=O)c1cccc(=O)n1O)C(=O)c1cccc(=O)n1O)C(=O)c1cccc(=O)n1O)c1cccc(=O)n1O` [3,4,3-L1(1,2-HOPO)], the “inhibition of CYP2B6 activity” value (CYP2B6) is reported as “did not inhibit”, the “behavior when reconstituted in water” value [1] is reported as “formed a sticky mass” and the renal findings ([2]; 7 days of oral gavage) is reported as “no renal findings”. For the same molecule, the “soft stools or diarrhea” value ([2]; oral gavage 400-1300 mg/kg (532-1732 μmol/kg) for 7 days) was “not observed” and the “inhibition of CYP2D6 activity” value (CYP2D6) was “did not inhibit”.
